Laboratory results from BindingDB's records for doi:10.1016/j.bmcl.2012.10.009 (Abbott Laboratories, 2012).

Experiment: Inhibition of PLK1 in human MIAPaCa2 cells after 48 hrs by MTT assay

For `CC(C)(C)Nc1c(Nc2ccnc(Nc3ccc4c(c3)CCO4)n2)c(=O)c1=O`, which EC50 is on record?
Its EC50 is 2.86 µM.

Which EC50 does the source give for `CC(=O)N1CCc2cc(Nc3nccc(Nc4c(NC(C)(C)C)c(=O)c4=O)n3)ccc21` here?
Its EC50 is 1.47 µM.

Which EC50 does the source give for `CC(C)(C)Nc1c(Nc2ccnc(Nc3ccc4[nH]ncc4c3)n2)c(=O)c1=O` here?
The EC50 was 1.47 µM.

Which EC50 does the source give for `CC(C)(C)Nc1c(Nc2ccnc(Nc3ccc4c(c3)[nH]c3ccccc34)n2)c(=O)c1=O` here?
The EC50 was 5 µM.

Which EC50 does the source give for `CC(C)(C)Nc1c(Nc2ccnc(Nc3ccc(-c4cn[nH]c4)cc3)n2)c(=O)c1=O` here?
Its EC50 is 1.61 µM.

Which EC50 does the source give for `CC(C)(C)Nc1c(Nc2ccnc(Nc3ccc(-c4ccccn4)cc3)n2)c(=O)c1=O` here?
Its EC50 is 8.28 µM.

For `CC(C)(C)Nc1c(Nc2ccnc(Nc3ccc4c(c3)Cc3ccccc3-4)n2)c(=O)c1=O`, which EC50 is on record?
The EC50 was over 30 µM.

With `CC(C)(C)Nc1c(Nc2ccnc(Nc3ccc(-c4ccccc4)cc3)n2)c(=O)c1=O` as the compound, how does the EC50 read?
Its EC50 is over 30 µM.

Which EC50 does the source give for `CC(C)(C)Nc1c(Nc2ccnc(Nc3ccc4ncsc4c3)n2)c(=O)c1=O` here?
The EC50 was 2.86 µM.

Which EC50 does the source give for `CC(C)(C)Nc1c(Nc2ccnc(Nc3ccc(-c4ccncc4)cc3)n2)c(=O)c1=O` here?
Its EC50 is 1.05 µM.

For `CC(C)(C)Nc1c(Nc2ccnc(Nc3ccc(N4CCOCC4)cc3)n2)c(=O)c1=O`, which EC50 is on record?
The EC50 was 8.89 µM.

Which EC50 does the source give for `CC(C)(C)Nc1c(Nc2ccnc(Nc3ccc(-c4cccnc4)cc3)n2)c(=O)c1=O` here?
The EC50 was 2.55 µM.

Which EC50 does the source give for `CC(C)(C)Nc1c(Nc2ccnc(Nc3ccc(-c4csnn4)cc3)n2)c(=O)c1=O` here?
Its EC50 is 8.32 µM.
